Experiments:
[1] = tested on: luc+ bone marrow chimeric C57BL/6 mice; test: migration of luc+ marrow cells to irradiated lungs of luc+ marrow chimeric mice; assay type: in vivo, mouse; conditions: in drinking water, after second thoracic irradiation dose
Experimental: FIG. 14. Pulmonary migration of luc+ marrow cells to irradiated lungs of luc+ chimeric mice. Groups of 30 C57BL/6Tac mice were given 10 Gy TBI then 24 hr. later 1×10^7 luc+ bone marrow cells I.V. At day 63, subgroups received 18 Gy thoracic irradiation. […] Mice were serially imaged for luciferase, as described in the methods.
MMS350 was tested in two mouse models of fibrosis in the C57BL/6J model. In the first system (chimeric mice) C57BL/6 mice were irradiated to a total body dose of 10 Gy, which is known to be lethal for 100% of animals in the absence of bone marrow transplantation. These mice were then transplanted intravenously with luciferase positive C57BL/6J mouse bone marrow. These mice are valuable for measuring the site of hematopoiesis from donor origin marrow since the animals can be imaged for mobilization in a specific imaging system, which detects the luciferase signal. In this assay system, animals are injected with luciferin (the substrate for the enzyme luciferase) bone marrow cells, which contain luciferase (those from the donor marrow strain) metabolize luciferin and produce a […] which is detected in a camera system over the immobilized mice. These same animals can be imaged serially over several weeks-months and followed for migration of luciferase positive cells from bone marrow sites into irradiated sites. […]

[2] = target: T1, PKD1 (Homo sapiens, UniProt Q15139); test: radiometric PKD1 inhibition assay, cosolvent interference; assay type: biochemical; conditions: stock solutions in 25% 3/NMP
T1 sequence (Q15139 1-912): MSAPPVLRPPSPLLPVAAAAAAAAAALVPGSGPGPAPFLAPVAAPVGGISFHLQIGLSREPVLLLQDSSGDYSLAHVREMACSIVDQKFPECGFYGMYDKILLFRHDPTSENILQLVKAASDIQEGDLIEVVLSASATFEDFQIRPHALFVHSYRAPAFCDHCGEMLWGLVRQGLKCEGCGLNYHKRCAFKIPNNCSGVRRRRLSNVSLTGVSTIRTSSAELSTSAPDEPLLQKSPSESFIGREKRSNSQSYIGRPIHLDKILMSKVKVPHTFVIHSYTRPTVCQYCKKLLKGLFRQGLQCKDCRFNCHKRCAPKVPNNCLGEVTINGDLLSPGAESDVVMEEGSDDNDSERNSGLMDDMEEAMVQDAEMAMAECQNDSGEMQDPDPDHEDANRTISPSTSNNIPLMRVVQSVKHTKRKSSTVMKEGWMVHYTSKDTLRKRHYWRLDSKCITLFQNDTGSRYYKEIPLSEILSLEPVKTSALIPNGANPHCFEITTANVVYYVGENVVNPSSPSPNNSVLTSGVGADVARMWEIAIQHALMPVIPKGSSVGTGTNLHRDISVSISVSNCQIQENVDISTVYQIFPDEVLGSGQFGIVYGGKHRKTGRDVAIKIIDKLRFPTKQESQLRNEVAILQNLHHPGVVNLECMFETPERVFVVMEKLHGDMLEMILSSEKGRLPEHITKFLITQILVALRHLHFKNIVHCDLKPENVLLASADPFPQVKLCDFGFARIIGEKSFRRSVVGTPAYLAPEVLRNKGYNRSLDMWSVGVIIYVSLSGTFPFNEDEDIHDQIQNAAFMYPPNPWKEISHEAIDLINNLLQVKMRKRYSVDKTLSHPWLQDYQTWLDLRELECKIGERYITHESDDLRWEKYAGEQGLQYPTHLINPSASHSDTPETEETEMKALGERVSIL
Experimental: FIG. 8. Plot of PKD1 activity with compound concentrations of 1 μM. […] The % PKD1 activity is reported as the mean, and error bars represent SEM (n=3). The % PKD1 activity was determined as previously described.
FIG. 9. Plot of PKD1 activity with compound concentrations of 10 μM. […] The % PKD1 activity is reported as the mean, and error bars represent SEM (n=3). The % PKD1 activity was determined as previously described.
Recently, a series of compounds with nanomolar to micromolar inhibitory activity against the serine/threonine protein kinase D (PKD) isoform PKD1 was disclosed (FIG. 7). Several lead structures, especially those containing a pyrimidine moiety, suffered from poor solubility not only in aqueous media but also in DMSO. To test the feasibility of using sulfoxide 3 as a cosolvent for in vitro assays, its use in the radiometric PKD1 inhibition assay was examined. Inhibitory activity at two concentrations (1 μM and 10 μM) was measured using compound stock solutions in three formulations: DMSO, NMP, and 25% 3/NMP (FIGS. 8 and 9).

## CC1(C[S+]([O-])CC2(C)COC2)COC1 [compound 3, 3,3′-Sulfinylbis(methylene)bis(3-methyloxetane)]
[1]
  migration of bone marrow cells into the lungs: significantly reduces migration of bone marrow cells into the lungs
[2]
  interference with the standard PKD1 inhibition assay: did not interfere

From patent publication US9546144B2, “Bifunctional compounds” (University of Pittsburgh—of the Commonwealth System of …, priority 2011, dated 2017)
